# Columns and labels:
# [1] = Plasma and brain concentration in mice (co-administration with AEDs); assay type: in vivo; details: PTZ-T
# Protocol: Blood was collected intracardially by heart […] pipettes supplemented with heparin-Na (ratiopharm, Ulm, Germany; 10μl of 5.000 I.U./ml) and separated by centrifuging (1500xg for 10 min) at 6-8°C. The plasma was stored at -20°C in plastic tubes. After blood sample collection, rats were decapitated and brains were quickly dissected. After removing the adherent blood by tissue paper and cutting off the cerebellum, the samples were fresh frozen using liquid nitrogen. Brain tissue was stored at -80°C and delivered to the different laboratories on dry ice. For mice (groups with n = 6), a similar procedure was used for the preparation of plasma and brain samples. In experiments in which AFC was co-administered with carbamazepine or ethosuximide, drug concentrations in plasma and brain were estimated to detect potential pharmacokinetic interactions. Samples from experiments with AFC were analysed at the Lead Discovery Center (Dortmund, Germany). Briefly, AFC, carbamazepine and ethosuximide were extracted from plasma and homogenized brain by protein precipitation using acetonitrile. Resulting filtrates were analysed by liquid chromatography tandem-mass spectrometry (LC-MS/MS) using a Prominence UFLC system (Shimadzu, Duisburg, Germany) coupled to a QTrap 5500 instrument (ABSciex, Darmstadt, Germany). The compounds were separated on a Zorbax Eclipse Plus C18 column (Agilent Technologies, Santa Clara, CA, USA) with an acetonitrile/water gradient containing 0.1% formic acid as solvent. Chromatographic conditions and mass spectrometer parameters were optimized for each analyte. Plasma and brain concentrations of the compounds were calculated by means of a standard curve. Data were analysed using SigmaPlot (vers. 12.0, Systat Software, Erkrath, Germany) and SPSS (IBM SPSS Statistics 20, […], Germany), respectively. Results are expressed as mean ± SEM. […] In the MES-T, the current intensity inducing tonic hindlimb extensions in 50% of the mice (CC50 values with confidence limits for 95% probability) and the statistical significance was calculated using Probit analysis (SPSS). […] In the PTZ-T, the number of animals in the group with clonic seizures and the latency time were analysed using Fisher's exact probability test and the Mann-Whitney rank sum test, respectively. For multiple comparisons of the latency time a one-way ANOVA with the Holm-Sidak post hoc test was used. The influence of AFC on the plasma and brain concentrations of the antiepileptic drugs was statistical compared using the same procedure. In the PTZ-kindling model, the mean seizure stage within a group was calculated in relation to the number of PTZ-injections. Statistical comparison between vehicle- and compound-treated groups in this model was performed with two-way repeated measures ANOVA, followed by the Holm-Sidak post hoc test. The mean number of PTZ-injections needed to produce the first generalized seizure (≥ stage 3 convulsions) in the vehicle- versus compound-treated groups was statistically compared using a Mann-Whitney rank sum test. In fully kindled rats, the calculated mean seizure stage within a group after vehicle- and compound-treatment were compared using a paired t-test. P < 0.05 was the accepted minimum level of significance.
# [2] = set-up: method as in earlier work; details: 45.5 mg/kg i.p. every 48h for 1 month, ref [11] of S1 File, cited from earlier work
# [3] = test system: Iba 1 and GFAP immunoreactivity; assay: Iba 1 and GFAP immunohistochemistry, hippocampus of PTZ-kindled rats; assay type: in vivo; details: hippocampus CA3, 24h after the 25th PTZ injection, pre-treated with AFC or JNJ
# Protocol: One day after the last kindling session (after the 25th injection), vehicle/PTZ and compound/PTZ-treated rats as well as vehicle-only-treated or non-treated (naïve) rats as controls were transcardially perfused under deep CO2-anesthesia with 0.9% NaCl-solution, 2% paraformaldehyde (PFA, in 0.1 M sodium acetate buffer, pH 6.5) and 2% PFA/0.1% glutaraldehyde (in 0.1 M sodium borate buffer, pH 8.5) (see [73]). Brains were removed immediately and placed for 24 h in 2% PFA without glutaraldehyde (in 0.1 M sodium borate buffer, pH 8.5) at 4°C for post-fixation. […]
# For immunohistochemical studies, free-floating slices were incubated in 0.1 M Sørensen’s phosphate buffer (SPP) containing 1% H2O2 for 25 min. […] The immunoreactivity was evaluated using a light microscope (Axioskop, Zeiss) equipped with a CCD digital camera (AxioCam, ICc 1, Zeiss). For quantitative analysis of the GFAP and Iba 1-staining, images (20x magnification) from the hippocampal CA3 region of vehicle-only (controls) and vehicle/PTZ-treated animals (n = 10) were recorded at constant microscope adjustment and were evaluated with the LSM (LSM 510 Meta, Zeiss) using the semiautomatic image analysis software “Histogram” function. Significant differences were determined by calculating the abundance of densely stained pixels (pixel values lower than 67% of the background) using a two-tailed Wilcoxon rank sum test. […]
smiles,measurement,setting,value
"CCC1(C)CC(=O)NC1=O (stereo not drawn) [Ethosuximide, ethosuximide]",blood concentrations of ethosuximide on co-application of AFC,[1],did not significantly modulate
same,brain concentration of ethosuximide alone,"[1]; ethosuximide 100 mg/kg i.p., n = 6",377.3 ± 14.3 µM
same,brain concentration of ethosuximide with AFC 50 mg/kg i.p.,"[1]; ethosuximide 100 mg/kg i.p., n = 6, significantly increased",453.9 ± 18.7 µM
CCOc1ccc(Nc2ccc(/C(=C3C=C/C(=[N+](/CC)Cc4cccc(S(=O)(=O)[O-])c4)C=C/3C)c3ccc(N(CC)Cc4cccc(S(=O)(=O)O)c4)cc3C)cc2)cc1 [Brilliant Blue G],brain-plasma ratio in mice,[2],0.02
same,brain concentrations in mice,[2]; spectrophotometric analysis,0.15 µM
"O=C(NCC1(N2CCN(c3ccccc3)CC2)CCOCC1)c1cccnc1Sc1ccccc1 [JNJ-47965567, N-[[4-(4-phenyl-piperazin-1-yl)tetrahydro-2H-pyran-4-yl]-methyl]-2-(phenyl-thio) nicotinamide]",immunostaining for Iba 1 and GFAP compared to vehicle/PTZ-treated animals,[3],clearly reduced

# Reference: article PMC4900628, “Critical Evaluation of P2X7 Receptor Antagonists in Selected Seizure Models” (PLoS ONE, 2016)
